The test system of test [1] is secreted cytokines TNFα, IL-6 and KC-GRO. In words: Secreted cytokines in Lipopolysaccharide-stimulated BV-2 cells (Table 9 does not say which cytokine). Type of test: cell-based, mouse. The conditions noted are these: Mus musculus, BV-2, 5 h; read-out: EC50.
Another test deals with DYRK1A kinase (Homo sapiens, UniProt Q13627). In words: DYRK1A kinase activity (Ser/Thr 18 peptide Z-lyte FRET assay).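 Further: kinase activity read as coumarin/fluorescein emission ratio after development step, with unphosphorylated and phosphorylated peptide forms setting 0% and 100% controls, values from dose-response curves.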 Type of test: biochemical. The conditions noted are these: recombinant DYRK1A, 30 μM ATP, one hour at room temperature.
Test [2] concerns Wnt-responsive Sp5-Luc reporter in SW480 colon carcinoma cells. In words: Screening assay for Wnt activity (Sp5-Luc reporter gene assay). The conditions noted are these: Homo sapiens; for EC50: SW480. (Reporter assays use an easily measured gene product as a stand-in for the process of interest.)
The target of a further test is GSK3β kinase (Homo sapiens, UniProt P49841). Nature of the test: GSK3β kinase activity (Ser/Thr 09 peptide Z-lyte FRET assay). Type of test: biochemical. To be noted: recombinant kinase, 46 μM ATP, one hour at room temperature; read-out: EC50.
For test [3], the system named is SW480 colon carcinoma cells. Nature of the test: Cell viability assay (CellTiter-Glo). The conditions noted are these: Homo sapiens; for EC50: SW480, 96 h; for inhibition at 10 µM: SW480, read-out: percent inhibition at 10 μM. In general terms: Cellular ATP, detected with luciferase, serves as a proxy for viable cell number.
For test [4], the system named is α-smooth muscle actin (aSMA) positive LL29 cells. Nature of the test: Inhibition of the fibrotic process: αSMA staining in TGF-β1 treated LL29 fibroblasts from IPF patients. To be noted: Homo sapiens, Fibroblast, 96 h.
Another test relates to IL-6. In words: IL-6 inhibition in LPS-stimulated human peripheral blood mononuclear cells (HTRF). To be noted: Homo sapiens, PBMC; for EC50: 22 h; for inhibition at 10 µM: read-out: percentage in parentheses after EC50 >10. In general terms: TR-FRET usually uses a lanthanide donor and a delayed reading to cut background.
Test [5] deals with Tau phosphorylation at Ser396 (pSer396). Nature of the test: Tau phosphorylation at Ser396 (pSer396) in SH-SY5Y cells, ELISA / western blot.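 Further: decrease in pSer396 Tau measured in lysates of treated cells by colorimetric ELISA or chemiluminescent western blot, same pSer396 antibody for both.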 Type of test: cell-based, human. To be noted: Homo sapiens; SH-SY5Y cells, overnight (16-18 h); read-out: pSer396 Tau EC50.
Method: Two days before treatment, cells were seeded onto 96 well plates at 5×10^4 cells/well.
The above synthesized compounds were screened using the cell assay procedure to assess decrease Tau phosphorylation at Ser396 (pSer396) described below.
Cells were lysed with RIPA buffer complemented with phosphatase and protease inhibitors then lysates were spun down at 12,000 g for 10 min to remove any cellular debris.

Experimental findings from patent US10703748B2, “Diazanaphthalen-3-yl carboxamides and preparation and use thereof” (Samumed, LLC, priority 2017, dated 2020) are described below.

One may read the EC50 as the concentration needed to bring the measured effect to its halfway point.

GSK3β kinase, sequence (P49841 whole entry): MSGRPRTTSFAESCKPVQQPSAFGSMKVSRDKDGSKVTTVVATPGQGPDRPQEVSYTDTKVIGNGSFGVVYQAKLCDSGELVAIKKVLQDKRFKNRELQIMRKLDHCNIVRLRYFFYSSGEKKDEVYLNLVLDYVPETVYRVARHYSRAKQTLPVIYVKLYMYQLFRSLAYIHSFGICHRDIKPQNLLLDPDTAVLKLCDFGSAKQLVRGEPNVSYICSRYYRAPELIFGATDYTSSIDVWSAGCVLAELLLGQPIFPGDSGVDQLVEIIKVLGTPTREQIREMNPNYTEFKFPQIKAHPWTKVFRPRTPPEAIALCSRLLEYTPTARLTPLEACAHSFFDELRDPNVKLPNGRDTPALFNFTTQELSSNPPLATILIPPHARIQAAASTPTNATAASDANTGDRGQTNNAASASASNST
Method for DYRK1A kinase: Representative compounds were screened using the assay procedure for DYRK1A kinase activity as described below.
Each compound was dissolved in DMSO as a 10 mM stock and used to prepare compound source plates.
This is a non-radioactive assay using fluorescence resonance energy transfer (FRET) between coumarin and fluorescein to detect kinase activity which is represented as a ratio of coumarin emission/fluorescein emission.
The mixture was allowed to incubate with the representative compounds for one hour at room temperature. All reactions were performed in duplicate. Unphosphorylated (“0% Control”) and phosphorylated (“100% control”) forms of Ser/Thr 18 served as control reactions. Additionally, an 11-point dose-response curve of Staurosporine (1 uM top) was run to serve as a positive compound control.
After incubation, Development Reagent A was diluted in Development Buffer then added to the reaction and allowed to further incubate for one hour at room temperature.
Dose-response curves were generated and inhibitory concentration (IC50) values were calculated using non-linear regression curve fit in the Dotmatics' Studies Software (Bishops Stortford, UK).

Turning to `Cn1cc(-c2ccc3cnc(NC(=O)C4CC4)cc3n2)cn1` [Compound 2, N-(2-(1-Methyl-1H-pyrazol-4-yl)-1,6-naphthyridin-7-yl) cyclopropanecarboxamide], the EC50 in test [1] stood at 1700 nM; on DYRK1A kinase, 18 nM; in test [2], 2940 nM; on GSK3β kinase, 20 nM; in test [3] it was 2470 nM; in test [4], 677 nM. Further, the EC50 in the test with IL-6 came to 3160 nM; in test [5], 396 nM.
With `Cc1ncc(-c2ccc3cnc(NC(=O)N4CCOCC4)cc3n2)s1` [Compound 634, N-(2-(2-Methylthiazol-5-yl)-1,6-naphthyridin-7-yl)morpholine-4-carboxamide], the EC50 is 542 nM in test [1]; 29 nM on DYRK1A kinase; 8610 nM in test [2]; 1150 nM at GSK3β kinase; over 10000 nM in test [3]; 2130 nM in test [4]. In addition, the EC50 with IL-6 is over 10000 nM; in test [5], 7900 nM. The inhibition at 10 µM turned out to be 41.2% in test [3] and 13% in the test on IL-6.
Regarding `CN1CCN(c2cc(C(=O)Nc3ncc4ccc(-c5cncs5)cc4n3)ccn2)CC1` [Compound 1536, 2-(4-Methylpiperazin-1-yl)-N-(7-(thiazol-5-yl)quinazolin-2-yl)isonicotinamide], the EC50 in test [1] worked out at 336 nM; on DYRK1A kinase, 4 nM; in test [2], 663 nM; at GSK3β kinase, 207 nM; in test [3] it was 1040 nM; in test [4] it was 1130 nM. Further, the half-maximal effective concentration (EC50) in the test on IL-6 was over 10000 nM; in test [5], 1180 nM. Further, in the test with IL-6, the inhibition at 10 µM is 49.6%.
As for `Cn1cc(-c2ccc3cnc(NC(=O)CC4CNCCO4)cc3n2)cn1` (stereo not shown) [Compound 86, N-(2-(1-Methyl-1H-pyrazol-4-yl)-1,6-naphthyridin-7-yl)-2-(morpholin-2-yl)acetamide], the EC50 in test [1] stood at 201 nM; on DYRK1A kinase it was 12 nM; in test [2], 1890 nM; on GSK3β kinase, 68 nM; in test [3] it was 3610 nM; in test [4], 1890 nM. Besides, the EC50 with IL-6 worked out at 1020 nM; in test [5] it was 1000 nM.
For the molecule `CC(C(=O)Nc1cc2cc(-c3cnn(C)c3)ncc2cn1)N1CCCCC1` (stereo not shown) [Compound 3698, N-(6-(1-Methyl-1H-pyrazol-4-yl)-2,7-naphthyridin-3-yl)-2-(piperidin-1-yl) propanamide], the EC50 was 4800 nM in test [1]; 64 nM at DYRK1A kinase; 288 nM in test [2]; 9 nM at GSK3β kinase; 6900 nM in test [3]; 1070 nM in test [4]. Besides, the EC50 with IL-6 is over 10000 nM; in test [5], 76 nM. Also, in the test on IL-6, the inhibition at 10 µM worked out at 4.6%.
On to `Cc1ncc(-c2ccc3cnc(NC(=O)C4CCN(C)CC4)cc3n2)s1` [Compound 640, 1-Methyl-N-(2-(2-methylthiazol-5-yl)-1,6-naphthyridin-7-yl)piperidine-4-carboxamide], for which the 50% effective concentration (EC50) in test [1] is 504 nM; on DYRK1A kinase it was 38 nM; in test [2], over 10000 nM; on GSK3β kinase it was 401 nM; in test [3] it was over 10000 nM; in test [4] it was 671 nM. For the same molecule, the half-maximal effective concentration (EC50) with IL-6 was 7340 nM; in test [5], 877 nM. The inhibition at 10 µM was determined as 42.9% in test [2] (SW480, read-out: percent inhibition at 10 μM) and 40.4% in test [3].
For `CN(CC(=O)Nc1cc2nc(-c3cnn(C)c3)ccc2cn1)C1CCC1` [Compound 56, 2-(Cyclobutyl(methyl)amino)-N-(2-(1-methyl-1H-pyrazol-4-yl)-1,6-naphthyridin-7-yl)acetamide], the EC50 was 1140 nM in test [1]; 21 nM on DYRK1A kinase; 3390 nM in test [2]; 59 nM on GSK3β kinase; over 10000 nM in test [3]; 5180 nM in test [4]. In addition, the half-maximal effective concentration (EC50) with IL-6 is over 10000 nM; in test [5], 1500 nM. Also, the results for the inhibition at 10 µM (in test [3]; in the test with IL-6) were 35% and 6.3%, respectively.
